The values below are quoted from earlier work in patent US20100099776A1, “OILY SUSPENSION OF ATOVAQUONE” (RANBAXY LABORATORIES LIMITED, priority 2008, published 2010).

For the data set the following is noted: single oral dose.

Turning to `O=C1C(O)=C([C@H]2CC[C@H](c3ccc(Cl)cc3)CC2)C(=O)c2ccccc21` [Atovaquone, 244-(4-chlorophenyl)cyclohexyl′-3-hydroxy-1,4-naphthoquinone], the “dose above which absorption is dose-limited” value is on record as “above 750 mg”. Under “with fatty food”, the “increase of absorption by the presence of fatty food” value is on record as “about three-fold”.
